These results are taken from the supplement of paper PMC10307832.

Common to all, as to experiment: relative viability (nuclei count vs DMSO), 5 days (fraction); higher = more cells survive
Compound in assay [1]: CC1=CC(=NN1)NC2=CC(=NC(=N2)/C=C/C3=CC=CC=C3)N4CCN(CC4)C + C[C@]1(O)C[C@@H](c2nc(-c3ccc4ccc(-c5ccccc5)nc4c3)c3c(N)nccn32)C1 [Linsitinib] (partner 1 µM)
Summed up:
(§1)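 Medians of duplicate plates are given as relative viability. That measure is the nuclei count in treated wells divided by the count in vehicle wells. Counts were taken on 4× images of lung cancer cell lines in 1536-well plates, 5 days after pin-tool dosing the day after seeding with one drug alone or a fixed anchor-drug dose plus five library-drug doses (not always all listed) in √10 steps.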

Compound in the assay “Bortezomib + AZD7762”: CC(C)C[C@H](NC(=O)[C@H](Cc1ccccc1)NC(=O)c1cnccn1)B(O)O [Bortezomib] + NC(=O)Nc1cc(-c2cccc(F)c2)sc1C(=O)N[C@H]1CCCNC1 [AZD7762] (partner 0.2 µM)
The method in brief: as §1

Compound in the assay “Bortezomib + Foretinib”: CC(C)C[C@H](NC(=O)[C@H](Cc1ccccc1)NC(=O)c1cnccn1)B(O)O [Bortezomib] + COc1cc2c(Oc3ccc(NC(=O)C4(C(=O)Nc5ccc(F)cc5)CC4)cc3F)ccnc2cc1OCCCN1CCOCC1 [Foretinib] (partner 0.25 µM)
The method in brief: as §1

Compound in the assay “Bortezomib + OSI-027”: CC(C)C[C@H](NC(=O)[C@H](Cc1ccccc1)NC(=O)c1cnccn1)B(O)O [Bortezomib] + COc1cccc2cc(-c3nc([C@H]4CC[C@H](C(=O)O)CC4)n4ncnc(N)c34)[nH]c12 [OSI-027] (partner 0.5 µM)
The method in brief:
as §1

As to NCI-H650, the relative viability in assay [1] (first compound 0.08 µM) was 0.674; in assay [1] (first compound 0.253 µM), 1.06; in assay [1] (first compound 0.8 µM), 0.777; in assay [1] (first compound 2.53 µM), 0.278; in assay [1] (first compound 8 µM), 0.202; in the assay with Bortezomib + AZD7762 (first compound 0.0002 µM) it was 0.949. The relative viability with Bortezomib + AZD7762 (first compound 0.000632 µM) came to 1.08; with Bortezomib + AZD7762 (first compound 0.002 µM), 0.95; in the assay with Bortezomib + AZD7762 (first compound 0.006325 µM) it was 0.942; with Bortezomib + AZD7762 (first compound 0.02 µM), 0.289; with Bortezomib + Foretinib (first compound 0.000632 µM), 1.08; with Bortezomib + Foretinib (first compound 0.002 µM), 0.847. The relative viability with Bortezomib + Foretinib (first compound 0.006325 µM) came to 0.4; with Bortezomib + Foretinib (first compound 0.02 µM), 0.173; with Bortezomib + OSI-027 (first compound 0.000632 µM), 0.522; with Bortezomib + OSI-027 (first compound 0.002 µM) it was 0.536; in the assay with Bortezomib + OSI-027 (first compound 0.006325 µM) it was 0.595; in the assay with Bortezomib + OSI-027 (first compound 0.02 µM), 0.207.
